Data taken from article PMC10107917 (ACS Medicinal Chemistry Letters, 2023).
Bridge positions count the residues as written; N and C are the ends. Peptide text beside a SMILES is read from it.

Legend:
[1] = test system: furin-like enzyme activity in PANC-1 cell lysate; assay: Total furin-like enzyme activity in PANC-1 cell lysate; format: biochemical, human; conditions: peptide 100 µM
Description: The presence of furin in PANC-1 cell lysate was indicated by analyzing the release of fluorescent AMC product after incubation of furin substrate (Pyr-Arg-Thr-Lys-Arg-AMC) in the lysate, as described elsewhere.[31],[32] However, we are aware that this assay tends to reflect total furin-like enzyme activity rather than the activity of furin exclusively. This is the case because the liberation of AMC may be catalyzed not only by furin but also by an enzyme with a similar substrate preference, such as other PCs.[31] […] For comparison, the effect of a strong trypsin inhibitor, […] SFTI-1, on furin-like activity was insignificant under the same assay conditions. […] It is likely that SFTI-1 may provide protection for furin inhibitors from degradation by trypsin-like proteases. […]
µL for matriptases and 100 µL for furin. Measurements were carried out using excitation and emission wavelengths of 380 nm and 450 nm. The percentage inhibition of an enzyme was calculated relative to the control sample without an inhibitor. […]
Total furin-like enzyme inhibition/activity in PANC-1 cell lysates
Cell line and cell culture. The pancreatic cancer cell line, PANC-1, was obtained from the American Type Culture Collection, ATCC (Manassas, USA). PANC-1, a human pancreatic cancer cell line, was isolated from the pancreatic duct (ATCC, CRL-1469) and was cultured in Dulbecco’s Modified Eagle’s Medium (DMEM) by supplementing 10% fetal bovine serum (FBS) and 1% of penicillin/streptomycin (P/S). Cells were cultured at 37 °C with 5% CO2 in a humidified atmosphere. Cells were maintained in a 75 cm2 tissue culture flask. The medium was replaced every two days. The subcultivation ratio was […]
Preparation of lysates. PANC-1 cells were seeded in a Petri dishes. After 24 hours, […] were collected and centrifuged at 975 × g at 4 °C for 9 minutes. The supernatant was removed, and the cells were resuspended in a cold PBS buffer. The cells were centrifuged again at 900 × g at 4 °C for 5 minutes.
The supernatant was removed. Cells were suspended in Halt Protease Inhibitor Cocktail, EDTA-Free (100X) (Thermo Fisher Scientific). The samples were stored for 2 hours at -80°C. The samples were then defrosted and centrifuged at 16 000 × g at 4 °C for 20 minutes. The supernatant was stored at -80 […]
The inhibitory potency of selected peptides was examined in cell lysate alone or in presence of sunflower trypsin inhibitor (SFTI-1)6 sing furin fluorogenic substrate […] (Pepta Nova, Germany). Furin activity was determined by monitoring the AMC liberation over time with a plate reader. Measurements were performed using 96-well black plates (BRAND, Germany).
The general procedure was according to.7 In short: 20 µL of cell lysate (diluted 10 times with assay buffer pH 7.5 100 mM HEPES with 1 mM CaCl 2) was added to the well containing 60 µL of water, after 15 min in 37 °C 10 µL of peptide solution (final concentration in well 100 µM) was added. After 30 min incubation in 37 °C 10 µL substrate (100 µM final concentration) was added. […]
Next step was addition of appropriate peptide solution
(final concentration in well 100 µM) and 30 min incubation in 37 °C. After this time 10 µL substrate (100 µM final concentration) was added to the well. Percentage inhibition of the enzyme was calculated relative to the control sample without inhibitor.
Human serum from plasma (Sigma Aldrich, Germany) was prepared for the assay as referred previously.8 The experiments were carried out according to the procedure described before.2 The initial concentration of the peptide solutions was 1.54 mM. Each peptide solution was then diluted 10 times with human serum and incubated at 37 °C. Immediately after the start of incubation, 1, 2, 3, 5 and 24

[2] = molecular target: furin; conditions: cited from earlier work

| SMILES | effect on furin-like activity in PANC-1 cell lysate [1] | reduction of initial enzyme activity in PANC-1 cell lysate ([1]; without SFTI-1) | Ki [2] [pM] |
| --- | --- | --- | --- |
| CC[C@H](C)[C@@H]1NC(=O)[C@@H]2CCCN2C(=O)[C@@H]2CCCN2C(=O)[C@H]([C@@H](C)CC)NC(=O)[C@H](CO)NC(=O)[C@H](CCCCN)NC(=O)[C@H](CCCCN)NC(=O)[C@@H](NC(=O)[C@H](CCCNC(=N)N)NC(=O)[C@@H](N)CCCCN)CSSC[C@@H](C(=O)N[C@@H](Cc2ccccc2)C(N)=O)NC1=O [FI, Lys-Arg-Cys(&)-Lys-Lys-Ser-Ile-Pro-Pro-Ile-Cys(&)-Phe-NH2, reference compound] (H-KRCKKSIPPICF-NH2; disulfide 3-11; N-terminus assumed) | reduced furin-like activity | about 50% | 490 |
| CC[C@H](C)[C@@H]1NC(=O)[C@@H]2CCCN2C(=O)[C@@H]2CCCN2C(=O)[C@H]([C@@H](C)CC)NC(=O)[C@H](CO)NC(=O)[C@H](CCCCN)NC(=O)[C@H](CCCCN)NC(=O)[C@@H](NC(=O)[C@H](CCCNC(=N)N)NC(=O)[C@H](CCCNC(=N)N)NC(=O)[C@@H](N)CCCNC(=N)N)CSSC[C@@H](C(=O)N[C@@H](Cc2ccccc2)C(N)=O)NC1=O [inhibitor 3, Arg-Arg-Arg-Cys(&)-Lys-Lys-Ser-Ile-Pro-Pro-Ile-Cys(&)-Phe-NH2] (H-RRRCKKSIPPICF-NH2; disulfide 4-12) | reduced furin-like activity | – | – |
| CC[C@H](C)[C@@H]1NC(=O)[C@@H]2CCCN2C(=O)[C@@H]2CCCN2C(=O)[C@H]([C@@H](C)CC)NC(=O)[C@H](CO)NC(=O)[C@H](CCCCN)NC(=O)[C@H](CCCCN)NC(=O)[C@@H]2CSSC[C@H](NC1=O)C(=O)N[C@@H](Cc1ccccc1)C(=O)N[C@@H](CCCCN)C(=O)N[C@@H](CCCNC(=N)N)C(=O)N[C@@H](CCCNC(=N)N)C(=O)N2 [inhibitor 5, &^1Lys-Arg-Arg-Cys(&^2)-Lys-Lys-Ser-Ile-Pro-Pro-Ile-Cys(&^2)-Phe&^1] (cyclo(KRRCKKSIPPICF); disulfide 4-12) | reduced furin-like activity | – | – |
| CC[C@H](C)[C@@H]1NC(=O)[C@@H]2CCCN2C(=O)[C@@H]2CCCN2C(=O)[C@H]([C@@H](C)CC)NC(=O)[C@H](CO)NC(=O)[C@H](CCCCN)NC(=O)[C@H](CCCCN)NC(=O)[C@@H]2CSSC[C@H](NC1=O)C(=O)N[C@@H](Cc1ccccc1)C(=O)N[C@@H](CCCNC(=N)N)C(=O)N[C@@H](CCCNC(=N)N)C(=O)N[C@@H](CCCNC(=N)N)C(=O)N2 [inhibitor 6, &^1Arg-Arg-Arg-Cys(&^2)-Lys-Lys-Ser-Ile-Pro-Pro-Ile-Cys(&^2)-Phe&^1] (cyclo(RRRCKKSIPPICF); disulfide 4-12) | reduced furin-like activity | – | – |
